Measured values taken from patent US11554171B2, “Compounds and methods for the targeted degradation of bromodomain-containing proteins” (Arvinas Operations, Inc., priority 2015, dated 2023).
Values belong to the compound of their own block, whether it stands above or below them.

Tested on: c-myc in 22RV-1 cells
Assay: Human c-myc ELISA assay
Assay type: cell-based
Settings: Homo sapiens; for Emax: 22Rv1, 18 h, read-out: Degradation of BRD4: Maximum inhibition (%) c-Myc ELISA in 22RV1 cells; for DC50: 22Rv1, read-out: Degradation of BRD4: DC50 (uM) c-Myc ELISA in 22RV1 cells
Description: 22RV-1 cells are seeded at 30,000 cells/well at a volume of 75 μL/well in RPMI+10% FBS media in 96-well plates and grown overnight at 37 C. Cells are dosed with compounds at 4× concentration diluted in 0.4% DMSO; compounds are serially diluted 1:3 for 8-point dose curve. 25 ul of compounds is added to cells for a final concentration starting at 300 nM-0.3 nM or 1 uM-1 nM in 0.1% DMSO and incubated for 18 hrs. Media is aspirated, cells washed 1× with PBS and aspirated. Cells are lysed in 50 ul RIPA buffer (50 mM Tris pH8, 150 mM NaCl, 1% Tx-100, 0.1% SDS, 0.5% sodium deoxycholate) supplemented with protease and phosphatase inhibitors. Plates are incubated on ice for 15 minutes then centrifuged at 4 C for 10 min at 4000 rpm. Add 50 ul of cleared lysate from 96-well assay plate into 96-well c-myc ELISA plate (Novex, Life Technologies Catalog #KH02041). Reconstitute c-myc standard with standard diluent buffer; standard curve range is 333 pg/ml-0 pg/ml, diluted 1:2 for 8-point dose curve. The rest of the assay was performed following the protocol from the c-myc ELISA kit. Data is analyzed and plotted using GraphPad Prism software. Compounds described in this application were assayed and c-myc suppression potency is listed in the following Table (A: DC50<10 nM; B: DC50 10-100 nM; C: DC50: 100-1000 nM; D: DC50>1000 nM)

Structure (SMILES): Cc1ncsc1-c1ccc([C@H](C)NC(=O)[C@@H]2C[C@@H](O)CN2C(=O)[C@@H](NC(=O)CCc2cc(F)cc(O[C@H]3C[C@@H](NC(=O)C[C@@H]4N=C(c5ccc(Cl)cc5)c5c(sc(C)c5C)-n5c(C)nnc54)C3)c2)C(C)(C)C)cc1 [Example 183, (2S,4R)-1-[(2S)-2-(3-{3-fluoro-5-[(1,3-cis)-3-{2-[(9S)-7-(4-chlorophenyl)-4,5,13-trimethyl-3-thia-1,8,11,12-tetraazatricyclo[8.3.0.0^2,^6]trideca-2(6),4,7,10,12-pentaen-9-yl]acetamido}cyclobutoxy]phenyl}propanamido)-3,3-dimethylbutanoyl]-4-hydroxy-N-[(1S)-1-[4-(4-methyl-1,3-thiazol-5-yl)phenyl]ethyl]pyrrolidine-2-carboxamide]
Emax: 99% | DC50: < 0.01 µM

Structure (SMILES): Cc1ncsc1-c1ccc(CNC(=O)[C@@H]2C[C@@H](O)CN2C(=O)[C@@H](NC(=O)c2cccc(CCOCCNC(=O)C[C@@H]3N=C(c4ccc(Cl)cc4)c4c(sc(C)c4C)-n4c(C)nnc43)n2)C(C)(C)C)cc1 [Example 164]
Emax: 96% | DC50: 0.01 to 0.1 µM

Structure (SMILES): Cc1ncsc1-c1ccc(CNC(=O)[C@@H]2C[C@@H](O)CN2C(=O)[C@@H](NC(=O)CCc2cccc(OCCNC(=O)C[C@@H]3N=C(c4ccc(Cl)cc4)c4c(sc(C)c4C)-n4c(C)nnc43)c2)C(C)(C)C)cc1 [Example 84]
Emax: 100% | DC50: < 0.01 µM

Structure (SMILES): Cc1ncsc1-c1ccc(CNC(=O)[C@@H]2C[C@@H](O)CN2C(=O)[C@@H](NC(=O)COCCO[C@H]2C[C@@H](NC(=O)C[C@@H]3N=C(c4ccc(Cl)cc4)c4c(sc(C)c4C)-n4c(C)nnc43)C2)C(C)(C)C)cc1 [Example 138]
Emax: 89.4% | DC50: 0.1 to 1 µM

Structure (SMILES): Cc1ncsc1-c1ccc(CNC(=O)[C@@H]2C[C@@H](O)CN2C(=O)[C@@H](NC(=O)COCCN2CCN(c3ccc(CNC(=O)C[C@@H]4N=C(c5ccc(Cl)cc5)c5c(sc(C)c5C)-n5c(C)nnc54)cc3)CC2)C(C)(C)C)cc1 [Example 60]
Emax: 91% | DC50: 0.1 to 1 µM

Structure (SMILES): Cc1ncsc1-c1ccc(CNC(=O)[C@@H]2C[C@@H](O)CN2C(=O)[C@@H](NC(=O)COCCCOCCNC(=O)CC2N=C(c3ccc(Cl)cc3)c3c(sc(C)c3C)-n3c(C)nnc32)C(C)(C)C)cc1 (stereo partly drawn) [Example 105]
Emax: 97% | DC50: 0.01 to 0.1 µM

Structure (SMILES): Cc1ncsc1-c1ccc(CNC(=O)C2C[C@@H](O)CN2C(=O)[C@@H](NC(=O)c2cn3cc(OCCNC(=O)C[C@@H]4N=C(c5ccc(Cl)cc5)c5c(sc(C)c5C)-n5c(C)nnc54)ccc3n2)C(C)(C)C)cc1 (stereo partly drawn) [Example 96]
Emax: 67.9% | DC50: 0.1 to 1 µM

Now from value to compound, other results behind:

DC50: < 0.01 µM
Structure (SMILES): Cc1ncsc1-c1ccc([C@H](C)NC(=O)[C@@H]2C[C@@H](O)CN2C(=O)[C@H](C(C)C)n2cc(-c3ccnc(N4CCN(C(=O)C[C@@H]5N=C(c6ccc(Cl)cc6)c6c(sc(C)c6C)-n6c(C)nnc65)CC4)c3)cn2)cc1 [Example 322]
Emax: 92.6%

DC50: 0.01 to 0.1 µM
Structure (SMILES): Cc1ncsc1-c1ccc(CNC(=O)[C@@H]2C[C@@H](O)CN2C(=O)[C@@H](c2cc(Oc3ccc(O[C@H]4C[C@@H](NC(=O)C[C@@H]5N=C(c6ccc(Cl)cc6)c6c(sc(C)c6C)-n6c(C)nnc65)C4)nc3)no2)C(C)C)cc1 [Example 325]
Emax: 81.5%

DC50: 0.1 to 1 µM
Structure (SMILES): Cc1ncsc1-c1ccc([C@H](C)NC(=O)[C@@H]2C[C@@H](O)CN2C(=O)[C@@H](NC(=O)CN2CCN(C3CC4(C3)CN(C(=O)C[C@@H]3N=C(c5ccc(Cl)cc5)c5c(sc(C)c5C)-n5c(C)nnc53)C4)CC2)C(C)(C)C)cc1 [Example 360]
Emax: > 90%

DC50: 0.01 to 0.1 µM
Structure (SMILES): Cc1ncsc1-c1ccc([C@H](C)NC(=O)[C@@H]2C[C@@H](O)CN2C(=O)[C@H](C(C)C)n2cc(-c3cc(O[C@H]4C[C@H](NC(=O)C[C@@H]5N=C(c6ccc(Cl)cc6)c6c(sc(C)c6C)-n6c(C)nnc65)C4)ccn3)cn2)cc1 [Example 304]
Emax: 95%

DC50: > 1 µM
Structure (SMILES): Cc1ncsc1-c1ccc([C@H](C)NC(=O)[C@H]2C[C@@H](O)CN2C(=O)[C@@H](NC(=O)CN2CCC(O[C@H]3C[C@H](NC(=O)C[C@@H]4N=C(c5ccc(Cl)cc5)c5c(sc(C)c5C)-n5c(C)nnc54)C3)CC2)C(C)(C)C)cc1 [Example 347]
Emax: < 5%
